# Measured values taken from a melting point compilation (Tetko et al.; mined from patent text by program, amines drawn as free bases though some values may be those of a salt).
row,melting point,Compound
1,205 to 208 °C,CCCCCN(C[C@H]1CC[C@H](CN(CCCCC)C(=O)Nc2ccc(N(C)C)cc2)CC1)C(=O)Nc1ccc(N(C)C)cc1
2,131 to 132 °C,Cc1nccn1-c1nc(-c2ccc(Cl)cc2)c(CCCC(=O)NCCCl)o1
3,189 to 192 °C,CC(C)([C@H](NC(=O)OCC1c2ccccc2-c2ccccc21)C(=O)O)S(C)(=O)=O
4,106 to 107 °C,c1csc(-c2nc(COc3ccc(CCCCn4ccnc4)cc3)co2)c1
5,167 to 168 °C,COc1ccc(C(=O)O)s1
6,204 to 205 °C,Cc1ccc(NC(=O)c2ccc(CN3C[C@@H](C)N[C@@H](C)C3)c(Br)c2)cc1Nc1nccc(-c2cccnc2)n1
7,138 to 140 °C,O=C(O)C1CCN(c2nnc(NCc3ccc4c(c3)OCO4)c3ccncc23)CC1
8,164 to 165 °C,COCCNCCOc1ccc(NC(=O)c2ccccc2NS(C)(=O)=O)cc1
9,52 to 55 °C,COc1ccc(CNC(=S)N2C(=O)CC(c3ccc(OC)c(OC4CCCC4)c3)N2C)cc1 (stereo not given)
10,122 to 124 °C,Cc1ccc2c(c1)C(CCCCN1CCN(c3cccc(Cl)c3)CC1)C(=O)N2 (stereo not given)
11,120 to 121 °C,COc1cc(COc2nn(-c3ccccc3)cc2/C=C/CO)ccc1OCc1nc(-c2ccco2)oc1C
12,188 to 191 °C,Clc1ccc(C(c2ccc(Cl)cc2)(c2nc[nH]n2)n2ccnc2)cc1
13,192 °C,COc1ccc(-c2cc(C(F)(F)F)n3cnc(C#N)c3n2)cc1
14,143 to 145 °C,O=C(O)Cc1cccc(-c2onc3ccccc23)c1
15,90.5 to 92 °C,COc1ccccc1OC(=O)CNC(=O)C(C)SC(=O)c1cccs1 (stereo not given)
16,106 °C,CCOC(=O)C(C)(Cc1ccc(OCCN2CCCCC2)cc1)S(=O)(=O)c1ccc(OC)cc1 (stereo not given)
17,168 to 170 °C,C=C1[C@@H](NC(=O)C(F)(F)F)CC(O)O[C@H]1C (stereo not given in full)
18,163 to 165 °C,CC(C)C(NS(=O)(=O)c1ccccc1)C(=O)NOCc1ccccc1 (stereo not given)
19,108 to 110 °C,COC(CCNC(=O)C(F)(F)F)(c1ccccc1)c1ccccc1
20,112 to 115 °C,O=C(c1ccc(-c2ccccc2)cc1)c1cccnc1
21,220 °C,CC(=O)Oc1c(-c2ccc(=O)[nH]n2)cc(Br)c(C)c1Br
22,185 to 187 °C,CC(=O)Oc1ccc(NCc2c(F)c(F)c(C(F)(F)F)c(F)c2F)cc1C(=O)O
23,164 to 166 °C,COc1ccc(C2=NN(c3ccccc3)C(c3ccc(N)cc3)C2)cc1 (stereo not given)

row,melting point,Compound
1,72 to 76 °C,Fc1cccc(NC(=S)c2ccccn2)c1
2,125 to 129 °C,CC(C)c1ccc(N(Cc2cnn(Cc3cccs3)c2)C(=O)C2CCCc3c(O)cccc32)cn1 (stereo not given)
3,211 °C,CCCCCC1(C)OCc2c1cnc(C)c2OCC(=O)O (stereo not given)
4,61 to 63 °C,CCCCCCCCCCCOCc1ccc(C(=O)O)cc1OCCCCCCCCCCC
5,268 to 270 °C,Cn1cc(C2=C(c3c4n(c5ccccc35)CCCC(CO)C4)C(=O)NC2=O)c2ccccc21 (stereo not given)
6,86 to 88 °C,COc1ccc(C2=C(CC(C)N(C)C(C)C)C(=O)NCCC2)cc1 (stereo not given)
7,129 to 131 °C,COc1cccc(N2CCCN(/C(C)=C(/C#N)C(N)=S)CC2)c1
8,128 to 130 °C,CCOC(=O)c1n[nH]cc1[N+](=O)[O-]
9,233 to 235 °C,CCNC(=O)n1cc(F)c(NC(C)=O)nc1=O
10,214 to 215 °C,CC(=N)Nc1cccc(CNO)c1
11,141 to 144 °C,C[C@]1(CN2CCC(NC(=O)OCc3ccc(C(F)(F)F)cc3)CC2)Cn2cc([N+](=O)[O-])nc2O1
12,193 to 195 °C,COC(=O)CSc1nc(Oc2ccc(N3CCNCC3)cc2)ncc1[N+](=O)[O-]
13,192 to 194 °C,COC(=O)C1=C(CCc2ccccc2)NC(CC(=O)NCCO)=C(C(=O)OC)C1c1c(Cl)cccc1Cl (stereo not given)
14,166 to 167 °C,Cc1ccc(S(=O)(=O)Nc2nc(-c3ccc(OCc4ccccc4)cc3)cs2)cc1
15,126 to 127 °C,COc1ccc(CCOc2cccc(-c3cccc(C(=O)NCCN4CCCC4)c3)n2)cc1OC
16,> 300 °C,Nc1nc[nH]c(=O)c1O
17,206 to 207 °C,CSc1ccc(-n2c(-c3ccc(Cl)cc3)nc(SC)c(C#N)c2=O)cc1
18,72 °C,CN(CCO)c1ccc(C=O)cc1
19,165 to 167 °C,CCCc1ccc2c(c1CCC(=O)O)CCC(NS(=O)(=O)c1ccc(Cl)cc1)C2 (stereo not given)
20,107 °C,O=Cc1cccc2nc(-c3ccccc3)oc12
21,80 to 81 °C,CC(=O)OCc1cccc(N)c1I
22,179 to 181 °C,Cc1c(C#N)oc2c(c1=O)COc1ccccc1-2
23,66 °C,Cc1ccc2c(c1)[C@H](Nc1nc(NC=O)nc(C(F)F)n1)[C@@H](C)C2

row,melting point,Compound
1,193 to 194 °C,CNC(=O)NS(=O)(=O)c1cc2c(cc1OC)OCCC2CNC(=O)c1cc(F)ccc1OC (stereo not given)
2,> 160 °C,CCCCc1nn2cc(-c3ccccc3)nc2n1Cc1ccc(-c2ccccc2-c2nnn[nH]2)cc1
3,184 to 186 °C,Oc1ccc(-c2cc3cc(Cl)cc(Cl)c3o2)cc1
4,202 to 203 °C,COc1cc(OC)c(-c2cc3ccccc3n2C)cc1C=CC(=O)c1ccc(S(=O)(=O)NCc2cccnc2)cc1
5,241 to 253 °C,CNC1C(O)CC2C3CCC4CC(O)CCC4(C)C3CCC21C (stereo not given)
6,127 °C,N#Cc1ccc([C@H]2CC[C@H](CI)CC2)cc1
7,217 to 218 °C,Cc1cc(-c2nc3cccnn3c2-c2ccnc(NC(=O)C3CC3)c2)ccc1F
8,211 to 212 °C,Cc1ccccc1NC(=O)Nc1ccc(CC(=O)ON2C(=O)CCC2=O)cc1
9,45 °C,CCCCCCCC(=O)N(C)Cc1cccc(-c2ccc(Nc3ccccc3C(=O)O)cc2)c1
10,166 to 168 °C,CCOC(=O)c1cnn(-c2c(F)c(F)c(C(F)(F)F)c(F)c2F)c1N
11,48 to 50 °C,CCCCCCCCCCOC(=O)c1cc(C(=O)OCCCCCCCCCC)cc([N+](=O)[O-])c1
12,61 to 62.5 °C,COC(=O)/C=C/c1ccc(C=O)s1
13,120 to 121 °C,Cc1oc(-c2ccccc2)nc1CCc1noc(COc2ccccc2CC(=O)O)n1
14,167 to 168 °C,Oc1ccc2nc(Cc3ccc(Cl)cc3)oc2c1
15,188 to 191 °C,COc1ccc(CC(=O)c2cccnc2)cc1OC
16,129 to 136 °C,C=CC1CC2=C(CC=C(OC)C2)C2CCC3(C)C(=CCC3O)C12 (stereo not given)
17,137 to 139 °C,CS(=O)c1ccc(S(=O)(=O)N2CCCC(c3ccccc3)=N2)cc1 (stereo not given)
18,60 to 63 °C,Cc1nnc(SCc2ccccc2)s1
19,210 °C,O=C(OC[C@@H](O)[C@@H]1CC(c2ccc(-c3ccc(N4C[C@H](Cn5ccnn5)OC4=O)cc3F)cn2)=NO1)c1cccnc1
20,110 to 111 °C,CC(C)CC(C(=O)O)c1cc(OCC2CC2)c(-c2ccc3nonc3c2)cc1F (stereo not given)
21,128 to 132 °C,CC(C)(C)OC(=O)NC(Cc1ccccc1)C(O)CNCC(O)C(Cc1ccccc1)NC(=O)OC(C)(C)CCCNCc1ccccc1 (stereo not given)
22,111 to 113 °C,O=C(c1ccc(-c2cnc3c(c2)N(Cc2cc(F)ccc2F)CCN3)cn1)N1CCOCC1
23,44 to 46 °C,C=Cc1c(C(C)C)nc(C(C)C)c(CCCCC)c1-c1ccc(F)cc1

row,Compound,melting point
1,C#CCNC(=O)c1ncn2c1CN(C)C(=O)c1c-2ccc(F)c1Cl,235 to 237 °C
